Data taken from patent US9540391B2, “Isomannide derivatives as inhibitors of soluble epoxide hydrolase” (SANOFI, priority 2013, dated 2017).
pIC50: −log10 of the molar value. Structures can show the parent of a compound that is named as a salt.

What follows are compounds tested against T1, recombinant sEH (Homo sapiens, UniProt P34913) (assay: biochemical screening assay for inhibition of soluble epoxide hydrolase (fluorometric, Phome substrate)).
T1 construct: made in house; host or cells: Sf9 insect cells
T1 sequence (P34913 1-555): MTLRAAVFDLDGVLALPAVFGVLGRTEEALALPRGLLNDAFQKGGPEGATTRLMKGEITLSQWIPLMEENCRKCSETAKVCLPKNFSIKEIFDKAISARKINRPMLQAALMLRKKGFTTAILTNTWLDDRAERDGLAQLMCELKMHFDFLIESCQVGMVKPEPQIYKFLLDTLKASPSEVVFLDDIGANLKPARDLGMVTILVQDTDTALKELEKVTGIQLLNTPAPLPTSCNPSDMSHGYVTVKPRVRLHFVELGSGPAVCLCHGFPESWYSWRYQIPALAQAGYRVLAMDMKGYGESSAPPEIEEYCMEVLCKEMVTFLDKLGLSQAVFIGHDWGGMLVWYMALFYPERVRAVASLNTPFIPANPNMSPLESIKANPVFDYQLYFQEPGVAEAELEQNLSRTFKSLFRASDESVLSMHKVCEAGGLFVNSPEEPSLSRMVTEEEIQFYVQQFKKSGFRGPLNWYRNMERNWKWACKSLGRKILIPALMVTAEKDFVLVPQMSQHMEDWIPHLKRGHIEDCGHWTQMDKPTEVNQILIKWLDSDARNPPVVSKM
How it was run: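 Reading fluorescence before substrate addition and after completion corrected for autofluorescence. Reaction: 5 μM Phome, 2 nM recombinant human sEH (Sf9-expressed), compound 0.0001–10 μM, 25 mM Hepes with 0.01% albumin, 15 min pre-incubation then 60 min at 30 °C; IC50 derived from % inhibition.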
For `Cc1ncccc1OC1COC2C(NC(=O)NC3CC4CCC3(C)C4(C)C)COC12` [Example 173, 1-[(2R,3aS,5S,6S)-6-(2-Methyl-pyridin-3-yloxy)-hexahydro-furo[3,2-b]furan-3-yl]-3-((1R,2S,4R)-1,7,7-trimethyl-bicyclo[2.2.1]hept-2-yl)-urea], the pIC50 was 8.30. For `O=C(NC1CCCCC1)N[C@H]1CO[C@H]2[C@@H]1OC[C@@H]2Oc1cc(Cl)cc(Cl)c1` [Example 31, 1-Cyclohexyl-3-[(3S,3aR,6S,6aS)-6-(3,5-dichloro-phenoxy)-hexahydro-furo[3,2-b]furan-3-yl]-urea], the pIC50 was 8.52. For `Cc1ncccc1O[C@H]1CO[C@H]2[C@@H]1OC[C@@H]2NC(=O)NCc1c(C)n[nH]c1C` [Example 222, 1-(3,5-Dimethyl-1H-pyrazol-4-ylmethyl)-3-[(3S,3aR,6S,6aS)-6-(2-methyl-pyridin-3-yloxy)-hexahydro-furo[3,2-b]furan-3-yl]-urea], the pIC50 was 7.27. Compound `Cc1ncccc1O[C@H]1CO[C@H]2[C@@H]1OC[C@@H]2NC(=O)NC1CCC(C)CC1` (stereo partly drawn) [Example 257, 1-(4-Methyl-cyclohexyl)-3-[(3S,3aR,6S,6aS)-6-(2-methyl-pyridin-3-yloxy)-hexahydro-furo[3,2-b]furan-3-yl]-urea] has a pIC50 of 8.52. In the case of `CC1(c2ccc(O[C@H]3CO[C@H]4[C@@H]3OC[C@@H]4NC(=O)NC3CCCCC3)cc2)CCCCC1` [Example 124, 1-Cyclohexyl-3-{(3S,3aR,6S,6aS)-6-[4-(1-methyl-cyclohexyl)-phenoxy]-hexahydro-furo[3,2-b]furan-3-yl}-urea], the pIC50 was 8.40. In the case of `O=C(NC1CCCCC1)N[C@H]1CO[C@H]2[C@@H]1OC[C@@H]2Oc1cccc(N2CCNCC2)c1` [Example 142, 1-Cyclohexyl-3-[(3S,3aR,6S,6aS)-6-(3-piperazin-1-yl-phenoxy)-hexahydro-furo[3,2-b]furan-3-yl]-urea; trifluoroacetate], the pIC50 was 7.52. Compound `Cc1ccc(S[C@H]2CO[C@H]3[C@@H]2OC[C@@H]3NC(=O)NC2CCCCC2)nn1` [Example 57, 1-Cyclohexyl-3-[(3S,3aR,6S,6aS)-6-(6-methyl-pyridazin-3-ylsulfanyl)-hexahydro-furo[3,2-b]furan-3-yl]-urea] has a pIC50 of 8.52. With `CCOC(=O)CC[C@H]1CO[C@H]2[C@@H]1OC[C@@H]2NC(=O)NC1CCCCC1` [Example 376, 3-[(3S,3aR,6S,6aR)-6-(3-Cyclohexyl-ureido)-hexahydro-furo[3,2-b]furan-3-yl]-propionic acid ethyl ester] the pIC50 was 7.59. With `Cc1ncccc1O[C@H]1CO[C@H]2[C@@H]1OC[C@@H]2NC(=O)NC(C)(C)C(F)(F)F` [Example 232, 1-[(3S,3aR,6S,6aS)-6-(2-Methyl-pyridin-3-yloxy)-hexahydro-furo[3,2-b]furan-3-yl]-3-(2,2,2-trifluoro-1,1-dimethyl-ethyl)-urea] the pIC50 was 6.57. `O=C(Nc1ccc2c(c1)CCC2)N[C@H]1CO[C@@H]2[C@@H](CCc3ccsc3)CO[C@@H]21` [Example 367, 1-Indan-5-yl-3-[(3S,3aR,6S,6aR)-6-(2-thiophen-3-yl-ethyl)-hexahydro-furo[3,2-b]furan-3-yl]-urea] gave a pIC50 of 7.92. Compound `O=C(Nc1ccccc1)NC1COC2C(CCc3ccsc3)COC12` [Example 363, 1-Phenyl-3-[(3S,3aR,6R)-6-((S)-2-thiophen-3-yl-ethyl)-hexahydro-furo[3,2-b]furan-3-yl]-urea] has a pIC50 of 7.60. `O=C(NC1CCCCC1)N[C@H]1CO[C@H]2[C@@H]1OC[C@H]2O` [Example 1, 1-cyclohexyl-3-((3S,3aR,6R,6aR)-6-hydroxy-hexahydro-furo[3,2-b]furan-3-yl)-urea] showed a pIC50 of 6.52. Work on `Cc1ncccc1O[C@H]1CO[C@H]2[C@@H]1OC[C@@H]2NC(=O)NC(C)(C)COC(C)(C)C` [Example 226, 1-(2-tert-Butoxy-1,1-dimethyl-ethyl)-3-[(3S,3aR,6S,6aS)-6-(2-methyl-pyridin-3-yloxy)-hexahydro-furo[3,2-b]furan-3-yl]-urea] yielded a pIC50 of 6.32. `O=C(NCCc1ccccc1)N[C@H]1CO[C@H]2[C@@H]1OC[C@@H]2/C=C\c1ccccc1` [Example 331, 1-Phenethyl-3-[(3S,3aR,6S,6aR)-6-((Z)-styryl)-hexahydro-furo[3,2-b]furan-3-yl]-urea] showed a pIC50 of 7.74. `Cc1ncccc1O[C@H]1CO[C@H]2[C@@H]1OC[C@@H]2NC(=O)NC1(C#N)CCOCC1` [Example 248, 1-(4-Cyano-tetrahydro-pyran-4-yl)-3-[(3S,3aR,6S,6aS)-6-(2-methyl-pyridin-3-yloxy)-hexahydro-furo[3,2-b]furan-3-yl]-urea] gave a pIC50 of 5.46. `Cc1cc(C)cc(NC(=O)NC2COC3C(C#N)COC23)c1` (stereo not shown) [Example 381] gave a pIC50 of 6.97. For `O=C(NC1CCCCC1)N[C@H]1CO[C@H]2[C@@H]1OC[C@@H]2Sc1ccccn1` [Example 54, 1-Cyclohexyl-3-[(3S,3aR,6S,6aS)-6-(pyridin-2-ylsulfanyl)-hexahydro-furo[3,2-b]furan-3-yl]-urea], the pIC50 was 9.00. `O=C(NC1CCCCC1)N[C@H]1CO[C@H]2[C@@H]1OC[C@@H]2Oc1cccn2ccnc12` [Example 130, 1-Cyclohexyl-3-[(3S,3aR,6S,6aS)-6-(imidazo[1,2-a]pyridin-8-yloxy)-hexa-hydro-furo[3,2-b]furan-3-yl]-urea] was tested, and the pIC50 was 7.42. `Cc1ncccc1O[C@H]1CO[C@H]2[C@@H]1OC[C@@H]2NC(=O)NC1CCCCC1` [Example 76, 1-cyclohexyl-3-[(3S,3aR,6S,6aS)-6-(2-methyl-pyridin-3-yloxy)-hexahydro-furo[3,2-b]furan-3-yl]-urea] showed a pIC50 of 8.70. `O=C(NC1CCCCC1)N[C@H]1CO[C@H]2[C@@H]1OC[C@@H]2Oc1cccc(Oc2ccccn2)c1` [Example 127, 1-Cyclohexyl-3-{(3S,3aR,6S,6aS)-6-[3-(pyridin-2-yloxy)-phenoxy]-hexa-hydro-furo[3,2-b]furan-3-yl}-urea] gave a pIC50 of 8.15. `Cc1ncccc1O[C@H]1CO[C@H]2[C@@H]1OC[C@@H]2NC(=O)NC1(C#N)CCCCC1` [Example 220, 1-(1-Cyano-cyclohexyl)-3-[(3S,3aR,6S,6aS)-6-(2-methyl-pyridin-3-yloxy)-hexahydro-furo[3,2-b]furan-3-yl]-urea] was tested, and the pIC50 was 6.30. `CCC(OC)(c1cccc(O[C@H]2CO[C@H]3[C@@H]2OC[C@@H]3NC(=O)NC2CCCCC2)c1)c1nccs1` (stereo partly drawn) [Example 122, 1-Cyclohexyl-3-{(3S,3aR,6S,6aS)-6-[3-(1-methoxy-1-thiazol-2-yl-propyl)-phenoxy]-hexahydro-furo[3,2-b]furan-3-yl}-urea] was tested, and the pIC50 was 8.70. `Cc1nc(-c2ccc(O[C@H]3CO[C@H]4[C@@H]3OC[C@@H]4NC(=O)NC3CCCCC3)cc2)no1` [Example 121, 1-Cyclohexyl-3-{(3S,3aR,6S,6aS)-6-[4-(5-methyl-[1,2,4]oxadiazol-3-yl)-phenoxy]-hexahydro-furo[3,2-b]furan-3-yl}-urea] was tested, and the pIC50 was 9.00. In the case of `O=C(NC1CCCCC1)N[C@H]1CO[C@H]2[C@@H]1OC[C@@H]2S(=O)(=O)C1CCCCC1` [Example 74, 1-((3S,3aR,6S,6aS)-6-cyclohexanesulfonyl-hexahydro-furo[3,2-b]furan-3-yl)-3-cyclohexyl-urea], the pIC50 was 8.30. `O=C(NC1CCCCC1)N[C@H]1CO[C@H]2[C@@H]1OC[C@@H]2Sc1ncccn1` [Example 46, 1-Cyclohexyl-3-[(3S,3aR,6S,6aS)-6-(pyrimidin-2-ylsulfanyl)-hexahydro-furo[3,2-b]furan-3-yl]-urea] gave a pIC50 of 7.30. Work on `Cc1csc(S[C@H]2CO[C@H]3[C@@H]2OC[C@@H]3NC(=O)NC2CCCCC2)n1` [Example 58, 1-Cyclohexyl-3-[(3S,3aR,6S,6aS)-6-(4-methyl-thiazol-2-ylsulfanyl)-hexa-hydro-furo[3,2-b]furan-3-yl]-urea] yielded a pIC50 of 8.70. In the case of `Cc1ncccc1O[C@H]1CO[C@H]2[C@@H]1OC[C@@H]2NC(=O)NCC1CC(=O)N(C(C)C)C1` (stereo partly drawn) [Example 253, 1-(1-Isopropyl-5-oxo-pyrrolidin-3-ylmethyl)-3-[(3S,3aR,6S,6aS)-6-(2-methyl-pyridin-3-yloxy)-hexahydro-furo[3,2-b]furan-3-yl]-urea], the pIC50 was 6.10. Compound `Cc1ncccc1O[C@H]1CO[C@H]2[C@@H]1OC[C@@H]2NC(=O)N[C@H]1C[C@@H]2CC[C@H]1C2` [Example 181, 1-(1S,2S,4R)-Bicyclo[2.2.1]hept-2-yl-3-[(3S,3aR,6S,6aS)-6-(2-methyl-pyridin-3-yloxy)-hexahydro-furo[3,2-b]furan-3-yl]-urea] has a pIC50 of 9.00. `O=C(Nc1cccc(F)c1)N[C@H]1CO[C@H]2[C@@H]1OC[C@@H]2C#Cc1ccsc1` [Example 311, 1-(3-Fluoro-phenyl)-3-((3S,3aR,6S,6aR)-6-thiophen-3-ylethynyl-hexahydro-furo[3,2-b]furan-3-yl)-urea] gave a pIC50 of 6.84. Work on `Cc1ncccc1O[C@H]1CO[C@H]2[C@@H]1OC[C@@H]2NC(=O)NC1(C)COC1` [Example 240, 1-(3-Methyl-oxetan-3-yl)-3-[(3S,3aR,6S,6aS)-6-(2-methyl-pyridin-3-yloxy)-hexahydro-furo[3,2-b]furan-3-yl]-urea] yielded a pIC50 of 5.46. In the case of `O=C(Nc1ccc2c(c1)OCO2)N[C@H]1CO[C@H]2[C@@H]1OC[C@@H]2C#Cc1ccccc1` [Example 293, 1-Benzo[1,3]dioxol-5-yl-3-((3S,3aR,6S,6aR)-6-phenylethynyl-hexahydro-furo[3,2-b]furan-3-yl)-urea], the pIC50 was 7.15.
